Measurements published in ChEMBL document CHEMBL3526044, “Effect of albumin on human liver microsomal and recombinant CYP1A2 activities: impact on in vitro-in vivo extrapolation of drug clearance” (Drug Metab Dispos, 2012).
Each block holds one molecule with its values, some of them ahead of it.

Tests used:
Cytochrome P450 1A2 [1] = target: T1, Cytochrome P450 1A2 (Rattus norvegicus, UniProt P04799); assay: Binding affinity to rat recombinant CYP1A2 expressed in Escherichia coli assessed as fraction unbound by equilibrium dialysis method in presence of BSA; format: ADME
T1 sequence (P04799 whole entry): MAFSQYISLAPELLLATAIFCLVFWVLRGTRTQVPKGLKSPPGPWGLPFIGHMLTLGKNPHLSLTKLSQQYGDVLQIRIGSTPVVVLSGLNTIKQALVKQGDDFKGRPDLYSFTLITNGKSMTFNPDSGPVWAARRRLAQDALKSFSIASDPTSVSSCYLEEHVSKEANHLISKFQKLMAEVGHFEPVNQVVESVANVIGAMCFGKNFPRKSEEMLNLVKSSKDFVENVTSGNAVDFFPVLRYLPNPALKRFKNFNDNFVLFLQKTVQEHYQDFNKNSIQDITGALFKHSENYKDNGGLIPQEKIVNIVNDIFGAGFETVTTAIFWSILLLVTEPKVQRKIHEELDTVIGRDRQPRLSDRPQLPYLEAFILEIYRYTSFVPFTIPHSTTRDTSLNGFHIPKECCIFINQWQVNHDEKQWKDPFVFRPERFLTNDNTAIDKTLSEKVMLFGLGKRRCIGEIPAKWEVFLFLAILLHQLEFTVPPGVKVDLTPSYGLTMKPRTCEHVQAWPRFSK

Liver microsome [2] = assay: Drug metabolism in human liver microsomes assessed as retention time at 2 to 2000 uM incubated for 5 mins prior to NADPH addition measured after 25 mins by HPLC analysis; format: ADME
[3] = Stability of the compound assessed as retention time by HPLC analysis
Liver microsome [4] = assay: (§1) Drug metabolism in human liver microsomes assessed as enzyme-mediated O-deethylation incubated for 5 mins prior to NADPH addition measured after 25 mins by Michaelis-Menten equation analysis in presence of BSA; format: ADME; conditions: microsomes, 25 min
[5] = as §1; format: ADME; conditions: liver microsomes
Homo sapiens [6] = assay: Intrinsic clearance in healthy human at 250 mg, iv; format: ADME, organism-based; conditions: in vivo
[7] = Fraction unbound in human liver microsomes by equilibrium dialysis method in presence of BSA
Homo sapiens [8] = assay: Hepatic clearance in healthy human at 250 mg, iv; format: ADME, organism-based, Liver; conditions: in vivo
Liver microsome [9] = assay: (§2) Drug metabolism in human liver microsomes assessed as enzyme-mediated O-deethylation incubated for 5 mins prior to NADPH addition measured after 25 mins by Michaelis-Menten equation analysis; format: ADME; conditions: microsomes, 25 min
[10] = as §2; format: ADME; conditions: liver microsomes
[11] = Fraction unbound in human liver microsomes by equilibrium dialysis method
Cytochrome P450 1A2 [12] = target: T1, Cytochrome P450 1A2; assay: Binding affinity to rat recombinant CYP1A2 expressed in Escherichia coli assessed as fraction unbound by equilibrium dialysis method
Liver microsome [13] = assay: Drug metabolism in human liver microsomes assessed as retention time treated with 25 to 8000 uM lidocaine incubated for 5 mins prior to NADPH addition measured after 25 mins by HPLC analysis; format: ADME
Cytochrome P450 1A2 [14] = target: T1, Cytochrome P450 1A2; assay: Competitive inhibition of rat recombinant CYP1A2 expressed in Escherichia coli assessed as inhibition of PHEN O-deethylation by dixon plot analysis; format: ADME
[15] = substrate: CCOc1ccc(NC(C)=O)cc1; assay: Activity of rat recombinant CYP1A2 expressed in Escherichia coli assessed as enzyme-mediated O-deethylation after 7.5 mins by Michaelis-Menten equation analysis in presence of BSA; format: ADME
[16] = substrate: CCOc1ccc(NC(C)=O)cc1; assay: Activity of rat recombinant CYP1A2 expressed in Escherichia coli assessed as enzyme-mediated O-deethylation after 7.5 mins by Michaelis-Menten equation analysis; format: ADME

Molecule: CCOc1ccc(NC(C)=O)cc1 [PHENACETIN]
fraction unbound (Cytochrome P450 1A2 [1]): 0.8
Retention_time (Liver microsome [2]): 13 min
Retention_time [3]: 3.6 min
VmaxH (Liver microsome [4]): 772 pmol/min
VmaxL (Liver microsome [4]): 820 pmol/min
Km at 25 min ([5]; read-out: KmH): 6.6 µM
Km at 25 min ([5]; read-out: KmL): 881 µM
CL (Homo sapiens [6]): 933 L/h
fraction unbound [7]: 0.78
CLH (Homo sapiens [8]): 71 L/h
VmaxH (Liver microsome [9]): 811 pmol/min
VmaxL (Liver microsome [9]): 523 pmol/min
Km at 25 min ([10]; read-out: KmH): 27.8 µM
Km at 25 min ([10]; read-out: KmL): 867 µM
fraction unbound [11]: 0.98
fraction unbound (Cytochrome P450 1A2 [12]): 0.98

Molecule: CCCCCCCC/C=C\CCCCCCCC(=O)[O-].[Na+]
Ki (Cytochrome P450 1A2 [14]): 16.7 µM

Molecule: CCCCC/C=C\C/C=C\C/C=C\C/C=C\CCCC(=O)O
Ki (Cytochrome P450 1A2 [14]): 4.7 µM

B1: Cytochrome P450 1A2 (Rattus norvegicus) (protein)
chain: MAFSQYISLAPELLLATAIFCLVFWVLRGTRTQVPKGLKSPPGPWGLPFIGHMLTLGKNPHLSLTKLSQQYGDVLQIRIGSTPVVVLSGLNTIKQALVKQGDDFKGRPDLYSFTLITNGKSMTFNPDSGPVWAARRRLAQDALKSFSIASDPTSVSSCYLEEHVSKEANHLISKFQKLMAEVGHFEPVNQVVESVANVIGAMCFGKNFPRKSEEMLNLVKSSKDFVENVTSGNAVDFFPVLRYLPNPALKRFKNFNDNFVLFLQKTVQEHYQDFNKNSIQDITGALFKHSENYKDNGGLIPQEKIVNIVNDIFGAGFETVTTAIFWSILLLVTEPKVQRKIHEELDTVIGRDRQPRLSDRPQLPYLEAFILEIYRYTSFVPFTIPHSTTRDTSLNGFHIPKECCIFINQWQVNHDEKQWKDPFVFRPERFLTNDNTAIDKTLSEKVMLFGLGKRRCIGEIPAKWEVFLFLAILLHQLEFTVPPGVKVDLTPSYGLTMKPRTCEHVQAWPRFSK
Km [15]: 3.8 µM
Vmax [15]: 4.65e-05 µmol/min
Km [16]: 13.6 µM
Vmax [16]: 3.97e-05 µmol/min

The next lines start with the values.

Retention_time (Liver microsome [13]): 4.4 min
Molecule: CCNCC(=O)Nc1c(C)cccc1C

Ki (Cytochrome P450 1A2 [14]): 13.6 µM
Molecule: CCCCC/C=C\C/C=C\CCCCCCCC(=O)O [SODIUM LINOLATE]
